Test results reported in US20140045858A1, “COMPOUND P[…] ALZHEIMER'S DISEASE AND PREPARATION METHOD THEREOF” (priority 2011, published 2014).

Experiments:
[1] = system: rats' cholinergic and oxidative systems; experiment: Pharmacodynamic study, overall conclusions (rat amnesia model); type: in vivo; conditions: conclusion from Groups 3, 6 and 7, single-component patches
Excerpt: Finally, the activities/contents of AChE, SOD, GSH-Px and MDA in Groups 3-5 approximate to those in the blank control group, that is to say, the levels of oxidase in rat's cholinergic and oxidative systems in the various delivery groups are close to normal level.

[2] = oral delivery; cited from earlier work

SMILES	anti-oxidation effect [1]	function of anti-cholinergic damage [1]	half life (t½) [2]
Cc1nc(C)c(C)nc1C.O=P(O)(O)O [tetramethylpyrazine phosphate]	very strong anti-oxidation effect	relatively poor function of anti-cholinergic damage	2.89 h
C/C=C1\[C@H]2C=C(C)C[C@]1(N)c1ccc(=O)[nH]c1C2 [huperzine A]	certain effect of anti-oxidation	certain function of anti-cholinergic damage	
